Experimental data: US20040013643A1, “Methods for treatment of multiple sclerosis with statins” (Novlmmune S.A., priority 2000, published 2004)
“Also recorded” adds a separate entry of the source.

What was measured:
CD40 = test: IFN-γ induced CD40 expression on human vascular endothelial cells (Western blot, FACS); type: cell-based; details: ECs
Procedure: Cell isolation and culture. Human vascular endothelial cells (ECs) were isolated from saphenous veins and mammary arteries by collagenase treatment (Worthington Biochemicals), and cultured in dishes coated with gelatin (Difco). Cells were maintained in medium 199 (1 4199; BioWhittaker) supplemented with 100 U/ml penicillin/streptomycin (BioWhittaker), 5% FCS (Gibco), 100 μg/ml heparin (Sigma) and 50 μg/ml ECGF (endothelial cell growth factor; Pel-Freez Biological). Human vascular smooth muscle (SMCs) cells were isolated from human saphenous veins and mammary arteries by explant outgrowth, and cultured in DMEM (BioWhittaker) supplemented with 1% L-glutamine (BioWhittaker), 1% penicillin/streptomycin, and 10% FCS. Both cell types were subculture following trypsinization (0.5% trypsin (Worthington Biochemicals)/0.2% EDTA (EM Science)) in P100-culture dishes (Becton Dickinson). Culture media and FCS contained less than 40 pg LPS/ml as determined by chromogenic Limulus amoebocyte-assay analysis (QLC1000; BioWhittaker).
Western blot analysis. Cells were harvested in ice-cold RIPA solubilization buffer, and total amounts of protein were determined using a bicinchoninic acid quantification assay (Pierce, Rockford, Ill.). Twenty μg of total protein/lane were separated by SDS/PAGE under reducing conditions and blotted to polyvinylidene difluoride membranes (Millipore Corp, Bedford, Mass.) using a semidry blotting apparatus (Bio-Rad, Hercules, Calif.). Blots were blocked overnight in 5% defatted dry milk/PBS/0.1% Tween, and then incubated for 1 hour at room temperature with primary antibody (1:40) (rabbit polyclonal anti-CD40 Santa Cruz, San Diego, Calif.), or mouse monoclonal anti-human P-actin (1:5000) (Phanningen) for control of loading. This was followed by a 1 hour incubation with secondary peroxidase-conjugated antibody (1:10′000), (Jackson Immunoresearch, West Grove, Pa.). All steps were performed at room temperature and in between incubation steps cells were rinsed with PBS/0.1% Tween. lmmunoreactivity was detected using the enhanced chemiluminescence detection method according to the manufacturer's instructions. (Amersharn, Ddbendorf, Switzerland), and subsequent exposure of the membranes to x-ray film. Analysis of quantification of detection was performed using AIDA software.
Flow cytometry. Cells were incubated with FITC-conjugated specific antibody (60 min, […]) and analyzed in a Becton Dickinson FACScan flow cytometer. At least 20.000 viable cells were analyzed per condition. Data were analyzed using […] software (Becton Dickinson).
Surface CD40 expression was analyzed by […] after 24 hrs.

MHC class II = details: Atorvastatin, Lovastatin, Pravastatin compared; FIG. 1a
Procedure: Cell isolation and culture. […] Flow cytometry. […] Data were analyzed using […] software (Becton Dickinson).

CD40 mediated pathways = test: Cytokine release (MCP-1, IL-6, IL-8) from endothelial cells activated by CD40L, ELISA; type: cell-based, human; details: ECs; CD154 stimulation with statin; L-mevalonate added
Procedure: Cytokines assay. […] Experiments were performed in the presence of polymyxin B (1 μg/ml). Antibody binding was detected by adding substrate (R&D), and absorbance measured at 450 nm using a Dynatech plate reader. The amount of IL-6, IL-8 and MCP-I detected was calculated from a standard curve prepared with the recombinant protein. Samples were assayed in duplicates.
To investigate the functional consequences of inhibition of CD40 expression by statins on Endothelial Cells activation by CD40L, secreted cytokines were analyzed such as Interleukin-6 (IL-6), interleukin-8 (IL-8), macrophages chemoattractant protein-1 (MCP-1).

Molecule	IFN-γ induced CD40 expression (CD40; IFN-γ 500 U/ml, 24 hrs)	relative potency as MHC class II repressor among the forms tested (MHC class II)	concentration range over which the effect on IFN-γ induced CD40 was observed (CD40; IFN-γ 500 U/ml, 24 hrs, FIG. 7)	IFN-γ induced CD40 expression (CD40; IFN-γ 500 U/ml, 24 hrs, listed as atorvastatin)	effect on IFN-γ induced CD40 in the presence of L-mevalonate (CD40; with L-mevalonate)	CD40 expression, treatment with statin alone (CD40; without IFN-γ)	reversal of the statin effect by addition of L-mevalonate (CD40 mediated pathways)
CC[C@H](C)C(=O)O[C@H]1C[C@@H](C)C=C2C=C[C@H](C)[C@H](CC[C@@H]3C[C@@H](O)CC(=O)O3)[C@H]21 [Lovastatin]	decreased	–	–	–	–	–	–
CC(C)c1c(C(=O)Nc2ccccc2)c(-c2ccccc2)c(-c2ccc(F)cc2)n1CC[C@@H](O)C[C@@H](O)CC(=O)O [Atorvastatin]	repressed this induction of CD40 in a dose-dependant manner; also recorded: decreases IFN-γ induced CD40 protein expression on human atheroma-associated cells in a dose-dependant manner	most powerful MHC class II repressor	0.08 to 0.5 µM	decreased	markedly reduced	had an effect on CD40 expression	–
L-mevalonate	–	–	–	–	–	–	significantly reverses the process
